From article PMC3850062 (Virology, 2013)

Target: T1, gp16 (eGFP-gp16), phi29 DNA packaging motor ATPase (Bacillus phage phi29, UniProt P11014)
T1 sequence (P11014 1-332): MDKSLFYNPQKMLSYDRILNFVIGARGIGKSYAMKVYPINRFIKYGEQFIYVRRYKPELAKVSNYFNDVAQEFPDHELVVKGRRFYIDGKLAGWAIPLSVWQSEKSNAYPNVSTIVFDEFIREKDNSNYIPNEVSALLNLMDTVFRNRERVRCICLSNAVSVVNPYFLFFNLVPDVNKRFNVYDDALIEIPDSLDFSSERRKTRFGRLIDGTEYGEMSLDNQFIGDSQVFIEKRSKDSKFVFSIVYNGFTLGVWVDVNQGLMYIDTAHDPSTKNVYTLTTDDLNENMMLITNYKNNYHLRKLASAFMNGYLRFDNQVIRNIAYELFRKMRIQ
Conditions: without and with saturating dsDNA

`Nc1ncnc2c1ncn2[C@@H]1O[C@H](COP(=O)(O)OP(=O)(O)OP(=O)(O)O)[C@@H](O)[C@H]1O` [ATP] was tested, and the “fluorescence ATPase assay” value was “each subunit of gp16 is able to hydrolyze ATP independently”.
